Laboratory results taken from paper PMC13267113 (npj Drug Discovery, 2025).
Values after ≈ are worked out from the molar mass of the structure shown.

Legend:
[1] = molecular target: T1, human DNA topoisomerase IIα (TOP2A) (Homo sapiens, UniProt P11388); experiment: human topoisomerase II alpha decatenation assay; assay type: biochemical; details: n = 3, read-out: IC50 against TOP2A
T1 construct: purchased Inspiralis
Experimental: Inhibition of topoisomerase activity was examined using the human topoisomerase II alpha decatenation assay kit (Inspiralis) as indicated by the manufacturer. Briefly, a compound dilution series was prepared in DMSO. Water, dilution buffer, assay buffer, plasmid and enzyme were mixed with the compound solution and incubated at 37 °C for 30 min. A positive control (100% activity) was prepared without the compound, and a negative control (0% activity) was prepared without the compound and the enzyme. The reaction was stopped by adding gSTEB-buffer and chloroform/isoamylalcohol (24:1 v/v). The samples were vortexed and centrifuged before running gel electrophoresis. The gel was stained with ethidium bromide and imaged using a Fusion Fx gel imager (Vilber Lourmat). Subsequent analysis was done using ImageJ and GraphPad Prism (Version 10.0.2).

HepG2 (human, liver) = experiment: MTT cytotoxicity HepG2; assay type: cell-based; details: 72 h, n = 3
Experimental: (§1) All cell types were cultivated at 37 °C with 5% CO2. HepG2, HEK293, HCT116, CHO-K1, HeLa-CCL-2 and Huh-7.5 were purchased from ATCC. The respective cell media (Gibco) were supplemented with 10% FBS (Gibco) before usage. Cells were used between passages #5 and #30. To obtain biological repeats, cells were split separately for at least two passages.
(§2) Cells were washed with PBS and 0.5 mL trypsin was added. Afterwards, cells were incubated for 5 min before adding 10 mL medium containing 10% FBS. Per well, 120 µL cell suspension (5 × 10^4 cells/mL) was seeded in transparent 96-well cell bind plates and incubated for 2 h (37 °C, 5% CO2). A dilution series (1:3) of test compounds was prepared in respective media containing 10% FBS and added (60 µL) to the prepared cell plate. Cells were incubated for a further 72 h (37 °C, 5% CO2). Next, 20 µL MTT (5 mg/mL in PBS) was added to each well and incubated for 2 h (37 °C, 5% CO2). The wells were emptied and 100 µL isopropanol/10 N HCl (1000:4) per well was added.
(§3) The plates were analyzed by measuring the absorbance at 570 nm (plate reader Infinite® 200 Pro, Tecan). After normalization of data to the respective solvent controls, the calculated percentage of growth inhibition was plotted using GraphPad Prism software (version 10.0.2).

HEK293 (human, kidney) = experiment: MTT cytotoxicity HEK293; assay type: cell-based; details: HEK293, MTT, 72 h, n = 3, read-out: IC50 HEK293 (human, kidney)
Experimental: as §1, §2, §3

HCT116 (human, colon) = experiment: MTT cytotoxicity HCT116; assay type: cell-based; details: HCT-116, 72 h, n = 3
Experimental: as §1, §2, §3

HeLa (human, cervix) = experiment: MTT cytotoxicity HeLa; assay type: cell-based; details: 72 h, n = 3
Experimental: as §1, §2, §3

Huh-7.5 (human, liver) = experiment: MTT cytotoxicity Huh-7.5; assay type: cell-based; details: Huh7.5, 72 h, n = 3
Experimental: as §1, §2, §3

[2] = Metabolic stability in mouse liver microsomes; assay type: in vitro ADME; details: pooled mouse liver microsomes, 0.5 mg/mL microsomes, NADPH
Experimental: The metabolic stability of testosterone, verapamil and ketoconazole was determined in parallel to confirm the enzymatic activity of mouse liver microsomes. For combination experiments, cobicistat was added to the incubation mixture together with test compounds. […] Concentration of the remaining test compound at the different time points was analyzed by HPLC-MS/MS (Vanquish Flex coupled to a TSQ Altis Plus, Thermo Fisher, Dreieich, Germany) and used to determine half-life (t1/2).

[3] = Metabolic stability in mouse hepatocytes; assay type: in vitro ADME
Experimental: For the evaluation of combined phase I and phase II metabolic stability, the compound (1 μM) was incubated with 0.25 × 10^6 cells/mL of pooled mouse hepatocytes (Xenotech, Kansas City, USA). Cells were thawed in Leibovitz’s L-15 medium without phenol red (ThermoFisher Scientific, Waltham, USA). Briefly, cells were transferred into 50 mL of medium, followed by centrifugation at 55 g for 6 min. Supernatant was discarded, and the cell count was determined after gently resuspending the cell pellet in 1mL of medium. Hepatocytes were diluted to 0.5 × 10^6 cells/mL and incubated at 37 °C, 700 rpm for 10 min, to achieve the desired final cell count after addition of an equal volume of test compounds in medium, leading to a final test concentration of 1 µM at 1% DMSO. […] For the determination of metabolism in the presence of cobicistat, this drug was added together with test compounds in the desired concentration range. The metabolic stability of testosterone, verapamil, ketoconazole and 7-hydroxycoumarine were determined in parallel to confirm the enzymatic activity of mouse hepatocytes. […] Concentration of the remaining test compound at the different time points was analyzed by HPLC-MS/MS (Vanquish Flex coupled to a TSQ Altis Plus, Thermo Fisher, Dreieich, Germany) and used to determine half-life (t1/2). Intrinsic clearance was calculated as follows:2 CLintµL/min×10^6cells=Incubation volumeµL×ln(2)/Cells in incubation mixture[10^6]×t1/2
For metabolite identification studies, test compounds were incubated at 10 µM final concentration and samples were analyzed using HPLC-HRMS (Ultimate 3000 coupled to a Q Exactive Focus, Thermo Fisher, Dreieich, Germany). […] Blank samples using DMSO were run in parallel for background subtraction. Sample processing for metabolite identification was performed using Compound Discoverer 3.2 (Thermo Fisher, Dreieich, Germany). Metabolites were identified based on mass shifts and feasibility of the metabolic reaction, also in view of MS peak intensities over time.

Mouse plasma stability = assay type: in vitro ADME; details: read-out: Mouse plasma t1/2
[4] = Mouse plasma protein binding; assay type: in vitro ADME; details: read-out: Mouse PPB (converted)
physchem = details: zebrafish embryo incubation medium, aqueous buffer, kinetic from dmso stock

T1 sequence (P11388 whole entry): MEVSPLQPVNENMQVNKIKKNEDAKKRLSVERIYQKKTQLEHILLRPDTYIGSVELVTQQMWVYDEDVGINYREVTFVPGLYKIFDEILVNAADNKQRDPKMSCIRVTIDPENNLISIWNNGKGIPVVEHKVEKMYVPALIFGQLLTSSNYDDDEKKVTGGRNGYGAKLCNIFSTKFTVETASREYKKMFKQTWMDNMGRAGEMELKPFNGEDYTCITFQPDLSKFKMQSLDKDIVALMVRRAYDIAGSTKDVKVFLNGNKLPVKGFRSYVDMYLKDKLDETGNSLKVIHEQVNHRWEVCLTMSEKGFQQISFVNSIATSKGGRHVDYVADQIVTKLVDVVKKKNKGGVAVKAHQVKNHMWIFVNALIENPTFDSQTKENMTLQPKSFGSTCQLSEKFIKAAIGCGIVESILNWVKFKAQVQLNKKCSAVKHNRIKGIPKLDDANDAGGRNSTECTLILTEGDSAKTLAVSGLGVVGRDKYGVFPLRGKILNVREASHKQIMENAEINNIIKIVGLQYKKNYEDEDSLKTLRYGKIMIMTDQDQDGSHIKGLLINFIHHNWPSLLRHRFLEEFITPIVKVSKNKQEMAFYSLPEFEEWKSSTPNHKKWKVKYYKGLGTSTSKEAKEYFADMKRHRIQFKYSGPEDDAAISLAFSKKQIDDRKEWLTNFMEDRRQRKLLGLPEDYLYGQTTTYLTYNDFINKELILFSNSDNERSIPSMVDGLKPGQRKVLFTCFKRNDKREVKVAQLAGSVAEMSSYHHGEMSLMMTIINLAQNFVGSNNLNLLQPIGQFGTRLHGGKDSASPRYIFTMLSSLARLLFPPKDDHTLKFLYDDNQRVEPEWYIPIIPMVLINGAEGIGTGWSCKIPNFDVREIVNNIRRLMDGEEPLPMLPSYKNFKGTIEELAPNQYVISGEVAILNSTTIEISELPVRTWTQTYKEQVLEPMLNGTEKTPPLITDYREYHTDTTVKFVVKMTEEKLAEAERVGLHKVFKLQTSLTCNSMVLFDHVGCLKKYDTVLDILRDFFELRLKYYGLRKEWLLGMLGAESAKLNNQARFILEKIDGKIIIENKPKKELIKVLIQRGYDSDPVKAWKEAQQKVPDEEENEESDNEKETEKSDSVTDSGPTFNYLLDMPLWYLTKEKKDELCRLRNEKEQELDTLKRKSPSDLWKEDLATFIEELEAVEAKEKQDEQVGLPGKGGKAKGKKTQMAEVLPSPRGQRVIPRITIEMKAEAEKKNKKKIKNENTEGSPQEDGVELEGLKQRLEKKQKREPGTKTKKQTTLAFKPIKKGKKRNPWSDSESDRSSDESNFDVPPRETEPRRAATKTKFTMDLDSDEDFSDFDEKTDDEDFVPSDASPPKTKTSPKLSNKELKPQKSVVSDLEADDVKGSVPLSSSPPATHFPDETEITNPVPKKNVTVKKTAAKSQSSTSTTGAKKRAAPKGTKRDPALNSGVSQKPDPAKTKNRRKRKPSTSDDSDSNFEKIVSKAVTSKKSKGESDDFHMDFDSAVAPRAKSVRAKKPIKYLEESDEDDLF

## CO[C@H](C(N)=O)[C@H](NC(=O)c1ccc(NC(=O)c2ccc(C#N)cc2)cc1)C(=O)Nc1ccc(C(=O)Nc2ccc(C(=O)Nc3ccc(C(=O)O)cc3)c(O)c2OC(C)C)cc1 [CN-861-2]
[1]
  IC50: 6.26 ± 4.69 µM
HepG2 (human, liver)
  IC50: > 20 µM
HEK293 (human, kidney)
  IC50: > 20 µM
HCT116 (human, colon)
  IC50: > 20 µM
HeLa (human, cervix)
  IC50: > 37 µM
Huh-7.5 (human, liver)
  IC50: > 20 µM
[2]; read-out: MLM Clint
  microsomal CLint at 1 μM: < 11.6 µL/min/mg
[2]; read-out: MLM t1/2
  half-life at 1 µM: > 2 h
[3]
  stable in murine hepatocytes for: > 3 h
[3]; mouse, pooled mouse hepatocytes, 1 μM, 0.25 × 10^6 cells/mL
  hepatocyte CLint at 1 µM: < 5.1 µL/min/1e6 cells
[3]; mouse, pooled mouse hepatocytes, 1 μM, 0.25 × 10^6 cells/mL, read-out: Mouse Hepatocytes t1/2
  half-life at 1 µM: > 3 h
Mouse plasma stability
  half-life: > 4 h
[4]
  fraction unbound: 0.0037
physchem
  solubility: 20 µM (≈ 16.8 µg/mL)
